Source: patent US20060216346A1, “Dosage form containing (s)-pantoprazole as active ingredient” (priority 2003, published 2006)
Read-outs that look alike come from different tables or passages of the source.

Experiments:
[1] = Stability of the salt at 70° C. for one week; assay type: physicochemical; conditions: for discolouration and decomposition: identical conditions
From the text: Pantoprazole is the INN (International Nonproprietary Name) for the compound 5-difluoromethoxy-2-[(3,4-dimethoxy-2-pyridinyl)methylsulfinyl]-1H-benzimidazole. The magnesium salt of pantoprazole is the chemical compound magnesium bis[5-[difluoromethoxy]-2-[[3,4-dimethoxy-2-pyridinyl]methyl]sulfinyl]-1H-benzimidazolide]. The magnesium salt of (S)-pantoprazole [hereinafter also referred to as (−)-pantoprazole] and its hydrates in connection with the invention refers to the compound magnesium (−)-bis{[5-(difluoromethoxy)]-2-[(3,4-dimethoxy-2-pyridinyl)methylsulphinyl]-1H-benzimidazolide} including hydrates thereof. Here, particular emphasis is given to hydrates, which, after drying under reduced pressure at 50° C., have a water content of from 4.0 to 6.7% (by weight), in particular from 4.0 to 5.5%. Particular preference is given to the hydrate form which has a water content of from 4.0 to 5.0%, in particular from 4.2 to 4.4%, which corresponds to a dihydrate. The magnesium salt and its hydrates have highly surprising stability properties, making it a particularly suitable candidate for use in solid or oral dosage forms.
(§1) This absorption of water is reversible, so that it is difficult to adjust an exact water content.

[2] = Hygroscopicity / absorption of water; assay type: physicochemical
Method: as §1
Drying is carried out in a vacuum drying cabinet at <50 mbar and 40-45° C. [It is also possible to dispense with drying and to use the moist product (having an MIBK content of 10-20%) directly for step B]. The white-beige crystalline product obtained after drying is hygroscopic. The water content is from 2 to 12%. The absorption and release of water are reversible. Yield: 34 g=90% of theory (based on anhydrous product). Specific rotation: aD^20+=−95 (c=0.5, measured in methanol, sodium salt having a water content of 12%). m.p.: 145-165° C. (decomposition, sodium salt having a water content of 2%); 102-109° C. (decomposition, sodium salt having a water content of 12%).

Wettability = assay type: physicochemical; conditions: compared to the racemic pantoprazole magnesium dihydrate
From the text: as §1

Dissolution rate = assay type: physicochemical; conditions: compared to the racemic pantoprazole magnesium dihydrate
From the text: as §1

Solubility at pH 7.4 = assay type: physicochemical; conditions: at pH 7.4, compared to the racemic pantoprazole magnesium dihydrate
From the text: as §1

[3] = in comparison to pantoprazole itself or to pantoprazole sodium sesquihydrate; WO00/10995; cited from earlier work

SMILES	stability ([1]; at 70° C., one week)	discolouration and decomposition ([1]; at 70° C., one week)	stability properties ([1]; compared to the sodium salt of (−)-pantoprazole)	hygroscopicity [2]	wettability (Wettability)	dissolution rate (Dissolution rate)	solubility (Solubility at pH 7.4)	hygroscopicity ([2]; listed as (−)-Pantoprazole-Na)	stability properties [3]
COc1ccnc(C[S+]([O-])c2nc3cc(OC(F)F)ccc3[n-]2)c1OC.COc1ccnc(C[S+]([O-])c2nc3cc(OC(F)F)ccc3[n-]2)c1OC.O.O.[Mg+2] (single isomer, unassigned; (-)) [(−)-pantoprazole magnesium dihydrate, Magnesium (−)-bis{[5-(difluoromethoxy)]-2-[(3,4-dimethoxy-2-pyridinyl)methylsulphinyl]-1H-benzimidazolide}dihydrate]	completely stable	virtually no discolouration or decomposition	considerably improved stability properties	non-hygroscopic	better	considerably higher	better	–	–
COc1ccnc(C[S+]([O-])c2nc3cc(OC(F)F)ccc3[n-]2)c1OC.[Na+] (single isomer, unassigned; (-)) [(−)-pantoprazole sodium]	–	changes to brown, with formation of considerable amounts of decomposition products	–	absorbs water depending on drying conditions and atmospheric humidity	–	–	–	hygroscopic	–
COc1ccnc(C[S+]([O-])c2nc3cc(OC(F)F)ccc3[n-]2)c1OC.COc1ccnc(C[S+]([O-])c2nc3cc(OC(F)F)ccc3[n-]2)c1OC.[Mg+2] (centres unmarked) [magnesium bis[5-[difluoromethoxy]-2-[[3,4-dimethoxy-2-pyridinyl]methyl]sulfinyl]-1H-benzimidazolide]]	–	–	–	–	–	–	–	–	improved stability properties
